In patent publication US20230248741A1, “Compositions and Methods for Lowering Triglycerides in a Subject with Reduced Kidney Function and Diabetes Mellitus” (Amarin Pharmaceuticals Ireland Limited, priority 2018, published 2023):

Columns and labels:
[1] = tested on: patients with diabetes mellitus and eGFR <90 mL/min/1.73 m^2 for ≥3 months; assay: ANCHOR post-hoc: lipids/lipoproteins, apolipoproteins, oxidation and inflammation markers; type: in vivo, human
Description: A multi-center, placebo-controlled, randomized, double-blind, 12-week study is performed to evaluate the efficacy and safety of >96% E-EPA in patients with fasting triglyceride levels ≥200 mg/dl and <500 mg/dl despite statin therapy (the mean of two qualifying entry values needs to be ≥185 mg/dl and at least one of the values needs to be ≥200 mg/dl). The primary objective of the study is to determine the efficacy of >96% E-EPA 2 g daily and 4 g daily, compared to placebo, in lowering fasting TG levels in patients with high risk for cardiovascular disease and with fasting TG levels ≥200 mg/dL and <500 mg/dL, despite treatment to LDL-C goal on statin therapy.
The primary efficacy variable for the double-blind treatment period is percent change in TG from baseline to Week 12 endpoint. The secondary efficacy variables for the double-blind treatment period include the following: • Percent changes in total cholesterol (TC), high-density lipoprotein cholesterol (HDL-C), LDL-C, calculated non-HDL-C, and very low-density lipoprotein cholesterol (VLDL-C) from baseline to Week 12 endpoint; • Percent change in very low-density lipoprotein TG from baseline to Week 12; • Percent changes in apolipoprotein A-I (apo A-I), apolipoprotein B (apo B), and apo A-I/apo B ratio from baseline to Week 12; • Percent changes in lipoprotein(a) from baseline to Week 12; • Percent changes in LDL particle number and size, measured by nuclear magnetic resonance, from baseline to Week 12; • Percent change in remnant-like particle cholesterol from baseline to Week 12; • Percent change in oxidized LDL from baseline to Week 12; • Changes in FPG and HbA1c from baseline to Week 12; • Change in insulin resistance, as assessed by the homeostasis model index insulin resistance, from baseline to Week 12; • Percent change in lipoprotein associated phospholipase A2 (Lp-PLA2) from baseline to Week 12; • Change in intracellular adhesion molecule-1 from baseline to Week 12; • Change in interleukin-2 from baseline to Week 12; • Change in plasminogen activator inhibitor-1 from baseline to Week 12. Note: this parameter will only be collected at sites with proper storage conditions; • Change in hsCRP from baseline to Week 12; and • Change in plasma concentration and red blood cell membrane content of fatty acid from baseline to Week 12 including EPA, DPA, DHA, AA, dihomo-γ-linolenic acid (DGLA), the ratio of EPA/AA, ratio of oleic acid/stearic acid (OA/SA), and the ratio of total omega-3 acids over total omega-6 acids.
CVD-related (e.g., atherogenic) parameters were analyzed in a post-hoc study of 198 patients from the multi-center, placebo-controlled, randomized double-blind, 12-week study described in Example 1. These 198 patients have reduced kidney reduced function (e.g., eGFR<90 mL/min/1.73 m^2 for ≥3 months) and diabetes mellitus.
Objective. The primary objective of this post-hoc study was to determine if and how 4 g of daily of >96% E-EPA, compared to placebo, affects patients with reduced kidney function, diabetes mellitus, and high triglyceride levels. The secondary objective was to determine if and how 4 g daily >96% E-EPA, compared to placebo, affected CVD-related parameters in patients having a high risk for CVD and fasting TG levels […]200 mg/dL and <500 mg/dL, despite treatment to LDL-C goal on statin therapy. These CVD-parameters include lipid levels, lipoprotein levels, and inflammatory markers, such as TC, LDL-C, HDL-C, VLDL-C, VLDL-TG, RLP-C, non-HDL-C, Apo B, Apo C-III, Lp-PLA2, hsCRP, and ox-LDL, and in plasma and RBC EPA concentration. CVD-parameters were analyzed for median difference in percent change from baseline to week 12 in subjects receiving 4 g/day of E-EPA and those receiving the placebo.
Subjects: 98 patients were randomized to E-EPA and 100 patients were randomized to placebo. In total, atherogenic parameters were analyzed in all 198 patients, 56% of which were male and 97% of which were white. The mean age of the 198 patients was 63 years old. […]

[2] = tested on: patients with eGFR <90 mL/min/1.73 m^2 for ≥3 months and hsCRP ≥2.0 mg/L; assay: ANCHOR post-hoc (eGFR <90, hsCRP ≥2.0 mg/L): renal parameters; type: in vivo, human; settings: 4 g/day
Description: CVD-related (e.g., atherogenic) parameters were analyzed in a post-hoc study of 152 patients from the multi-center, placebo-controlled, randomized double-blind, 12-week study described in Example 1. These 152 patients have reduced kidney reduced function (e.g., eGFR<90 mL/min/1.73 m^2 for ≥3 months) and hsCRP≥2.0 mg/L.

[3] = 4 g/day group, before treatment
[4] = 4 g/day, week 12, Hodges-Lehmann

## CC/C=C\C/C=C\C/C=C\C/C=C\C/C=C\CCCC(=O)OCC [E-EPA, ethyl eicosapentaenoate]
[1]; 4 g/day group (n = 34), before treatment
  RLP-C Baseline, median: 14.0 mg/dL
[1]; 4 g/day group (n = 41), before treatment
  Ox-LDL Baseline, median (IQR): 54.2 (15.8) U/L
[1]; [3]
  Apo B Baseline, median (IQR): 92.0 (22.0) mg/dL
  Apo C-III Baseline, median (IQR): 42.0 (20.0) mg/dL
  HDL-C Baseline, median: 36.0 mg/dL
  LDL-C Baseline, median: 82.5 mg/dL
  Lp-PLA2 Baseline, median (IQR): 178.0 (54.0) ng/mL
  Non-HDL-C Baseline, median: 128.5 mg/dL
  TC Baseline, median: 169.5 mg/dL
  TG Baseline, median: 262.5 mg/dL
  VLDL-C Baseline, median: 42.0 mg/dL
  VLDL-TG Baseline, median: 186.0 mg/dL
  hsCRP Baseline, median (IQR): 2.2 (2.9) mg/L
[1]; 4 g/day, 12 weeks, P<0.0001
  reduction of triglycerides compared to placebo: about 19.7%
[1]; 4 g/day, week 12
  Apo B Change From Baseline, %, median (IQR): −3.5 (17.0) %
  Apo B End of Treatment, median (IQR): 88.0 (25.0) mg/dL
  Apo C-III Change From Baseline, %, median (IQR): −12.3 (45.6) %
  Apo C-III End of Treatment, median (IQR): 36.5 (23.0) mg/dL
  HDL-C Change From Baseline, %, median: −3.0%
  HDL-C End of Treatment, median: 37.0 mg/dL
  LDL-C Change From Baseline, %, median: −2.1%
  LDL-C End of Treatment, median: 83.0 mg/dL
  Lp-PLA2 Change From Baseline, %, median (IQR): −14.4 (16.5) %
  Lp-PLA2 End of Treatment, median (IQR): 160.0 (52.0) ng/mL
  Non-HDL-C Change From Baseline, %, median: −6.0%
  Non-HDL-C End of Treatment, median: 120.5 mg/dL
  Ox-LDL Change From Baseline, %, median (IQR): −8.2 (17.8) %
  Ox-LDL End of Treatment, median (IQR): 49.5 (12.8) U/L
  TC Change From Baseline, %, median: −5.2%
  TC End of Treatment, median: 160.5 mg/dL
  TG Change From Baseline, %, median: −19.3%
  TG End of Treatment, median: 209.8 mg/dL
  VLDL-C Change From Baseline, %, median: −12.3%
  VLDL-C End of Treatment, median: 36.5 mg/dL
  VLDL-TG Change From Baseline, %, median: −19.2%
  VLDL-TG End of Treatment, median: 146.0 mg/dL
  hsCRP Change From Baseline, %, median (IQR): −2.4 (81.7) %
  hsCRP End of Treatment, median (IQR): 1.7 (3.0) mg/L
[1]; [4]
  Apo B Median Difference in % Change From Baseline vs. Placebo: −10.1, <0.0001%
  Apo C-III Median Difference in % Change From Baseline vs. Placebo: −19.0, 0.0006%
  HDL-C Median Difference in % Change From Baseline vs. Placebo: −7.0, 0.0009%
  LDL-C Median Difference in % Change From Baseline vs. Placebo: −7.1, 0.0375%
  Lp-PLA2 Median Difference in % Change From Baseline vs. Placebo: −16.6, <0.0001%
  Non-HDL-C Median Difference in % Change From Baseline vs. Placebo: −13.7, <0.0001%
  Ox-LDL Median Difference in % Change From Baseline vs. Placebo: −16.2, <0.0001%
  RLP-C Median Difference in % Change From Baseline vs. Placebo: −35.4, 0.0029%
  TC Median Difference in % Change From Baseline vs. Placebo: −12.5, <0.0001%
  TG Median Difference in % Change From Baseline for Icosapent Ethyl 4 g/day vs. Placebo: −19.7, <0.0001%
  VLDL-C Median Difference in % Change From Baseline vs. Placebo: −19.0, 0.0006%
  VLDL-TG Median Difference in % Change From Baseline vs. Placebo: −22.3, <0.0001%
  hsCRP Median Difference in % Change From Baseline vs. Placebo: −24.4, 0.0120%
[1]; 4 g/day, week 12, n = 34
  RLP-C Change From Baseline, %, median: −28.9%
  RLP-C End of Treatment, median: 9.5 mg/dL
[2]; before 0.9 mg/dL, no change
  serum creatinine after 12 weeks: 0.9 mg/dL
[2]; before 4.5 g/dL, no statistically significant change
  albumin after 12 weeks: 4.4 g/dL
[2]; increase from 72.4
  eGFR after 12 weeks: 78.5 mL/min/1.73 m^2
